Tests used:
ADJ/PC6A plasmacytoma = test: activity against ADJ/PC6A plasmacytoma grown subcutaneously in mice, oral administration; format: in vivo, female Balb C^- mice; conditions: for ED90 (dose level causing a 90% reduction in tumor size): suspension in arachis oil
Protocol: (§1) Additionally, the same compounds were tested for activity against ADJ/PC6A plasmacytoma grown subcutaneously in female Balb C^- mice following oral administration as a suspension in arachis oil. Dosage levels were at 100μ mole/kg of body weight for pharmacokinetic tests to establish the extent of absorption into the systemic circulation.
(§2) Results are presented in terms of concentration (μg/ml) of Pt in the blood and cumulative percentage dose in urine, cage wash and faeces, all after specified time intervals. Results for anti-tumor effect are expressed as LD50 (mg/kg), ED90 (mg/kg), and TI (LD50 /ED90). The figures for LD50 (the dose level causing 50% deaths) and ED90 (the dose level causing a 90% reduction in tumor size) are determined by administering dosage levels ranging from lethal to non-tumor inhibitory. The therapeutic index (TI) is an indication of the selectivity of the compound as an anti-tumor agent.

[1] = pharmacokinetic tests: Pt in blood and cumulative percentage dose in urine, cage wash and faeces after oral administration; format: in vivo, female Balb C^- mice
Protocol: as §1, §2

B16 melanoma = test: anti-tumor activity against B16 melanoma in BDF1 female mice, i.p. 9 daily doses; format: in vivo; design: median survival time (MST): unit not given here; conditions: for % T/C (MST/MST control×100) / median survival time (MST): 9 daily doses from Day 1; for average weight change (AWC): by Day 6
Protocol: (§3) Compounds according to the invention were screened for anti-tumor activity against L1210 leukaemia and B16 melanoma in mice. The compounds were administered intraperitoneally as solutions or suspensions in water and "Tween" 80 as carrier to CDF1 male mice (L1210) and BDF1 female mice (B16). […] For each dose level, results are quoted in terms of median survival time (MST); the comparative effect (i.e. MST/MST control×100); average weight change (AWC) by Day 5 (L1210) or Day 6 (B16); and the number of mice alive (MA) at Day 5 (L1210) or Day 10 (B16).
(§4) Results were as follows for the compounds as prepared in Examples 3 and 4.
2. B16 (0.5 ml 10% BREI): treatment consisted of 9 daily doses beginning at Day 1.

L1210 leukaemia = test: anti-tumor activity against L1210 leukaemia in CDF1 male mice, i.p. single dose Day 1; format: in vivo; design: median survival time (MST): unit not given here; conditions: for % T/C (MST/MST control×100) / median survival time (MST): single dose Day 1; for average weight change (AWC): by Day 5
Protocol: as §3, §4
1. L1210 (1×10^6 cells): treatment consisted of single dose on Day 1.

[2] = LD50 (dose level causing 50% deaths), oral administration; format: in vivo, female Balb C^- mice; conditions: suspension in arachis oil
Protocol: as §1, §2

With `N.NC1CCCCC1.O=C([O-])C1(C(=O)[O-])CCC1.[Pt+2]` [Ex. 3, ammine(cyclobutane-1,1-dicarboxylato)cyclohexylamine platinum(II)] the “therapeutic index TI (LD50/ED90)” value (ADJ/PC6A plasmacytoma) was 22, the “ED90 (dose level causing a 90% reduction in tumor size)” value (ADJ/PC6A plasmacytoma) was 73 mg/kg and the “Blood conc. of Pt” value ([1]; 1 hr, oral, 100μ mole/kg, suspension in arachis oil) was 0.62 ± 0.11 μg/ml of whole blood. For the same molecule, the “Blood conc. of Pt” value ([1]; 2 hrs, oral, 100μ mole/kg, suspension in arachis oil) was 0.80 ± 0.08 μg/ml of whole blood, the “Blood conc. of Pt” value ([1]; 4 hrs, oral, 100μ mole/kg, suspension in arachis oil) was 0.64 ± 0.03 μg/ml of whole blood and the “Blood conc. of Pt” value ([1]; 7 hrs, oral, 100μ mole/kg, suspension in arachis oil) was 0.51 ± 0.09 μg/ml of whole blood. The “Cage wash (cumulative %)” value ([1]; 24 hrs, oral, 100μ mole/kg) was 5.1 ± 1.2%, the “Faeces dose (cumulative %)” value ([1]; 24 hrs, oral, 100μ mole/kg) was 57.0 ± 14.1% and the “Urine dose (cumulative %)” value ([1]; 24 hrs, oral, 100μ mole/kg) was 11.4 ± 2.1%. For the same molecule, the “Blood conc. of Pt” value ([1]; 24 hrs, oral, 100μ mole/kg, suspension in arachis oil) was 0.16 ± 0.05 μg/ml of whole blood, the “Cage wash (cumulative %)” value ([1]; 48 hrs, oral, 100μ mole/kg) was 6.4 ± 1.8% and the “Faeces dose (cumulative %)” value ([1]; 48 hrs, oral, 100μ mole/kg) was 62.1 ± 13.7%. The “Urine dose (cumulative %)” value ([1]; 48 hrs, oral, 100μ mole/kg) was 12.8 ± 1.8%, the “Blood conc. of Pt” value ([1]; 48 hrs, oral, 100μ mole/kg, suspension in arachis oil) was 0.16 ± 0.03 μg/ml of whole blood and the “% T/C (MST/MST control×100)” value (B16 melanoma; 6 mg/kg i.p.) was 136%. The “median survival time (MST)” value (B16 melanoma; 6 mg/kg i.p.) was 26.5, the “number of mice alive (MA)” value (B16 melanoma; 6 mg/kg i.p., 9 daily doses, at Day 10) was 10/10 and the “average weight change (AWC)” value (B16 melanoma; 6 mg/kg i.p., 9 daily doses) was -0.3 g. For the same molecule, the “% T/C (MST/MST control×100)” value (B16 melanoma; 12 mg/kg i.p.) was 149%, the “median survival time (MST)” value (B16 melanoma; 12 mg/kg i.p.) was 29.0 and the “number of mice alive (MA)” value (B16 melanoma; 12 mg/kg i.p., 9 daily doses, at Day 10) was 10/10. For the same molecule, the “average weight change (AWC)” value (B16 melanoma; 12 mg/kg i.p., 9 daily doses) was -1.0 g, the “% T/C (MST/MST control×100)” value (B16 melanoma; 18 mg/kg i.p.) was 174% and the “median survival time (MST)” value (B16 melanoma; 18 mg/kg i.p.) was 34.0. For the same molecule, the “number of mice alive (MA)” value (B16 melanoma; 18 mg/kg i.p., 9 daily doses, at Day 10) was 10/10, the “average weight change (AWC)” value (B16 melanoma; 18 mg/kg i.p., 9 daily doses) was -1.6 g and the “% T/C (MST/MST control×100)” value (B16 melanoma; 24 mg/kg i.p.) was 177%. The “median survival time (MST)” value (B16 melanoma; 24 mg/kg i.p.) was 34.5, the “number of mice alive (MA)” value (B16 melanoma; 24 mg/kg i.p., 9 daily doses, at Day 10) was 10/10 and the “average weight change (AWC)” value (B16 melanoma; 24 mg/kg i.p., 9 daily doses) was -1.4 g. The “% T/C (MST/MST control×100)” value (L1210 leukaemia; 40 mg/kg i.p.) was 154%, the “median survival time (MST)” value (L1210 leukaemia; 40 mg/kg i.p.) was 10.0 and the “number of mice alive (MA)” value (L1210 leukaemia; 40 mg/kg i.p., single dose, at Day 5) was 5/5. For the same molecule, the “average weight change (AWC)” value (L1210 leukaemia; 40 mg/kg i.p., single dose) was -0.1 g, the “% T/C (MST/MST control×100)” value (L1210 leukaemia; 80 mg/kg i.p.) was 185% and the “median survival time (MST)” value (L1210 leukaemia; 80 mg/kg i.p.) was 12.0. For the same molecule, the “number of mice alive (MA)” value (L1210 leukaemia; 80 mg/kg i.p., single dose, at Day 5) was 6/6, the “average weight change (AWC)” value (L1210 leukaemia; 80 mg/kg i.p., single dose) was -2.4 g and the “% T/C (MST/MST control×100)” value (L1210 leukaemia; 120 mg/kg i.p.) was 185%. The “median survival time (MST)” value (L1210 leukaemia; 120 mg/kg i.p.) was 12.0, the “number of mice alive (MA)” value (L1210 leukaemia; 120 mg/kg i.p., single dose, at Day 5) was 6/6 and the “average weight change (AWC)” value (L1210 leukaemia; 120 mg/kg i.p., single dose) was -0.6 g. The “% T/C (MST/MST control×100)” value (L1210 leukaemia; 160 mg/kg i.p.) was 231%, the “median survival time (MST)” value (L1210 leukaemia; 160 mg/kg i.p.) was 15.0 and the “number of mice alive (MA)” value (L1210 leukaemia; 160 mg/kg i.p., single dose, at Day 5) was 5/6. For the same molecule, the “average weight change (AWC)” value (L1210 leukaemia; 160 mg/kg i.p., single dose) was -4.5 g and the “LD50 (dose level causing 50% deaths)” value [2] was 1600 mg/kg.
In the case of `[NH2][Pt]1([NH]C2CCCC2)[O]C(=O)C2(CCC2)C(=O)[O]1` [Ex. 4, ammine(cyclobutane-1,1-dicarboxylato)cyclopentylamine platinum(II)], the “therapeutic index TI (LD50/ED90)” value (ADJ/PC6A plasmacytoma) was 32, the “ED90 (dose level causing a 90% reduction in tumor size)” value (ADJ/PC6A plasmacytoma) was 50 mg/kg and the “Blood conc. of Pt” value ([1]; mouse, in vivo, po, 1 h) was 0.88 ± 0.05 μg/ml of whole blood. The “Blood conc. of Pt” value ([1]; mouse, in vivo, po, 2 h) was 1.21 ± 0.16 μg/ml of whole blood, the “Blood conc. of Pt” value ([1]; mouse, in vivo, po, 4 h) was 0.82 ± 0.12 μg/ml of whole blood and the “Blood conc. of Pt” value ([1]; mouse, in vivo, po, 7 h) was 0.32 ± 0.05 μg/ml of whole blood. The “Blood conc. of Pt” value ([1]; mouse, in vivo, po, 24 h) was 0.20 ± 0.03 μg/ml of whole blood, the “Cage wash (cumulative %)” value ([1]; mouse, in vivo, po, 24 h) was 7.1 ± 0.7% and the “Faeces dose (cumulative %)” value ([1]; mouse, in vivo, po, 24 h) was 57.6 ± 3.5%. For the same molecule, the “Urine dose (cumulative %)” value ([1]; mouse, in vivo, po, 24 h) was 16.8 ± 2.4%, the “Blood conc. of Pt” value ([1]; mouse, in vivo, po, 48 h) was 0.20 ± 0.03 μg/ml of whole blood and the “Cage wash (cumulative %)” value ([1]; mouse, in vivo, po, 48 h) was 8.0 ± 0.9%. For the same molecule, the “Faeces dose (cumulative %)” value ([1]; mouse, in vivo, po, 48 h) was 59.8 ± 3.6%, the “Urine dose (cumulative %)” value ([1]; mouse, in vivo, po, 48 h) was 18.2 ± 2.4% and the “% T/C (MST/MST control×100)” value (B16 melanoma; 8 mg/kg) was 115%. For the same molecule, the “median survival time (MST)” value (B16 melanoma; 8 mg/kg) was 22.5, the “% T/C (MST/MST control×100)” value (B16 melanoma; 13 mg/kg i.p.) was 133% and the “median survival time (MST)” value (B16 melanoma; 13 mg/kg i.p.) was 26.0. For the same molecule, the “% T/C (MST/MST control×100)” value (B16 melanoma; 20 mg/kg i.p.) was 149%, the “median survival time (MST)” value (B16 melanoma; 20 mg/kg i.p.) was 29.0 and the “% T/C (MST/MST control×100)” value (B16 melanoma; 30 mg/kg i.p.) was 164%. The “median survival time (MST)” value (B16 melanoma; 30 mg/kg i.p.) was 32.0, the “number of mice alive (MA)” value (B16 melanoma; mouse, in vivo) was 10/10 and the “% T/C (MST/MST control×100)” value (L1210 leukaemia; 40 mg/kg i.p.) was 154%. The “median survival time (MST)” value (L1210 leukaemia; 40 mg/kg i.p.) was 10.0, the “% T/C (MST/MST control×100)” value (L1210 leukaemia; 80 mg/kg i.p.) was 177% and the “median survival time (MST)” value (L1210 leukaemia; 80 mg/kg i.p.) was 11.5. The “% T/C (MST/MST control×100)” value (L1210 leukaemia; 120 mg/kg i.p.) was 177%, the “median survival time (MST)” value (L1210 leukaemia; 120 mg/kg i.p.) was 11.5 and the “% T/C (MST/MST control×100)” value (L1210 leukaemia; 160 mg/kg i.p.) was 192%. For the same molecule, the “median survival time (MST)” value (L1210 leukaemia; 160 mg/kg i.p.) was 12.5, the “number of mice alive (MA)” value (L1210 leukaemia; mouse, in vivo) was 6/6 and the “LD50 (dose level causing 50% deaths)” value [2] was 1600 mg/kg.
